Test results as given in patent US20060134228A1, “Medicine for prevention of and treatment for amyloidosis” (Nipro Corporation, priority 2002, published 2006).

Molecular target: T1, transthyretin purified from human serum (Homo sapiens, UniProt P02766)
T1 construct: Using transthyretin purified from human serum as a transthyretin-containing solution; from tissue; host or cells: human serum
Assay: Quantitative ratio of transthyretin tetramer and transthyretin monomer (gel separation chromatography, Coomassie stain)
Assay type: biochemical
Settings: metal chloride 80 μg/mL, transthyretin 0.2 mg/mL, incubated at 37° C.
Description: Using transthyretin purified from human serum as a transthyretin-containing solution, the purity thereof was confirmed by electrophoresis. The transthyretin-containing solution (10 mg/mL) was dissolved in a buffer solution to obtain a concentration of 0.2 mg/mL, and chromium chloride (80 μg/mL) was added. The pH of the buffer solution was adjusted to a pH necessary for each experiment using sodium hydroxide or hydrochloric acid. The above-described solution was incubated at 37° C. to produce amyloid fiber.
The transthyretin tetramer and the transthyretin monomer were separated by gel separation chromatography, immersed in the Coomassie Brilliant Blue stain, and examined for color developing intensity. Likewise, measurements were conducted for a comparative example wherein the metal compound added to the solution for incubation was changed from chromium chloride to aluminum chloride, and for a control not formulated with chromium chloride. Also, another test was conducted in the same manner, except that the metal compound added to the solution for incubation was replaced with 80 μg/mL chromium chloride and 80 μg/mL aluminum chloride (chromium chloride and aluminum chloride coexisted). Measurement results of fluorescence intensity and the quantitative ratio of the transthyretin tetramer and the transthyretin monomer are shown in FIG. 1.

Structure (SMILES) | decomposition from the transthyretin tetramer to the transthyretin monomer | decomposition from the transthyretin tetramer to the transthyretin monomer (listed as aluminum)
[Cl][Al]([Cl])[Cl] [aluminum ion, aluminum chloride] | promote the reaction of decomposing the transthyretin tetramer to the monomer | promote the decomposition
[Cl][Cr]([Cl])[Cl] [trivalent chromium ion, chromium chloride] | inhibit the reaction of decomposing the transthyretin tetramer to produce the monomer | –
